Reference: PMC4861903, “Synthesis of a highly water-soluble acacetin prodrug for treating experimental atrial fibrillation in beagle dogs” (Scientific Reports, 2016)
In brackets after ≈: the same amount, converted by molar mass. Like-named read-outs stand apart in the source and are kept apart here.

What was measured:
hERG channels = biological target: T1, hERG channels (Homo sapiens, UniProt Q12809); settings: 30 μM; cited from earlier work
T1 construct: expressed in transfected cells; host or cells: HEK 293
T1 sequence (Q12809 whole entry): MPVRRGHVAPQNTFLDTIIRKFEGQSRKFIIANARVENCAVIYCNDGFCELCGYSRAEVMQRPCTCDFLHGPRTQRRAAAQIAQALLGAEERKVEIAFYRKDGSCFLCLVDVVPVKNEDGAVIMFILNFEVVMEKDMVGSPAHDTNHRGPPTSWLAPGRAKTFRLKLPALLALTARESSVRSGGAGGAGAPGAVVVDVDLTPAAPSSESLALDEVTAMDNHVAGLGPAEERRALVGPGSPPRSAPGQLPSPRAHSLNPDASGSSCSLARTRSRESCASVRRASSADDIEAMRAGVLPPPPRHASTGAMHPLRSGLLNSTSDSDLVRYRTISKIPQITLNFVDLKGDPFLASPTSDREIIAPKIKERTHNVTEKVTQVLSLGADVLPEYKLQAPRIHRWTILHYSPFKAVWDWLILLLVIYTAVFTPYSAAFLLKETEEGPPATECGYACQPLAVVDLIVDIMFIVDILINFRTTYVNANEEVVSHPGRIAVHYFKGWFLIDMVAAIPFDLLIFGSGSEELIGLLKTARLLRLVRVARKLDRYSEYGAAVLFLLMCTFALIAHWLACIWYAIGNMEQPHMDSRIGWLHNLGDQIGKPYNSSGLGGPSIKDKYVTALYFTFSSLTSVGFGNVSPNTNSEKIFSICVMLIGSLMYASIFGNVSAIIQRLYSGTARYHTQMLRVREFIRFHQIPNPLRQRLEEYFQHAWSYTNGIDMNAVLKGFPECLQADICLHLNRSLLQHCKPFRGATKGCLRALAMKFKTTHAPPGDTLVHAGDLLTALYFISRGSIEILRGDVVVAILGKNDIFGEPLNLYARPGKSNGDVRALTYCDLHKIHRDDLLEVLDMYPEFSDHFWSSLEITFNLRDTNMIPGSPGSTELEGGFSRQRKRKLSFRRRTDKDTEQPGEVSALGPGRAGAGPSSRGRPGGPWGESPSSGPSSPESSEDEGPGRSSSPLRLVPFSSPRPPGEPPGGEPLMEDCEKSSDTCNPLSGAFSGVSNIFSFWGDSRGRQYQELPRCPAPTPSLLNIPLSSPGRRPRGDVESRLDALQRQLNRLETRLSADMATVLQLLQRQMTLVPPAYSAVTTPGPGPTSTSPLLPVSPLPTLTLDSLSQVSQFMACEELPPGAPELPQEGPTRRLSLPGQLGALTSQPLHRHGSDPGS

[1] = biological target: T2, hKv4.3 current (Ito, KCND3) (Homo sapiens, UniProt Q9UK17); assay: Whole-cell patch clamp of hKv4.3 current in HEK 293 cells; format: cell-based; settings: 10 μM, at +50 mV, current peak, n = 5
T2 construct: expressed in transfected cells
T2 sequence (Q9UK17 1-655): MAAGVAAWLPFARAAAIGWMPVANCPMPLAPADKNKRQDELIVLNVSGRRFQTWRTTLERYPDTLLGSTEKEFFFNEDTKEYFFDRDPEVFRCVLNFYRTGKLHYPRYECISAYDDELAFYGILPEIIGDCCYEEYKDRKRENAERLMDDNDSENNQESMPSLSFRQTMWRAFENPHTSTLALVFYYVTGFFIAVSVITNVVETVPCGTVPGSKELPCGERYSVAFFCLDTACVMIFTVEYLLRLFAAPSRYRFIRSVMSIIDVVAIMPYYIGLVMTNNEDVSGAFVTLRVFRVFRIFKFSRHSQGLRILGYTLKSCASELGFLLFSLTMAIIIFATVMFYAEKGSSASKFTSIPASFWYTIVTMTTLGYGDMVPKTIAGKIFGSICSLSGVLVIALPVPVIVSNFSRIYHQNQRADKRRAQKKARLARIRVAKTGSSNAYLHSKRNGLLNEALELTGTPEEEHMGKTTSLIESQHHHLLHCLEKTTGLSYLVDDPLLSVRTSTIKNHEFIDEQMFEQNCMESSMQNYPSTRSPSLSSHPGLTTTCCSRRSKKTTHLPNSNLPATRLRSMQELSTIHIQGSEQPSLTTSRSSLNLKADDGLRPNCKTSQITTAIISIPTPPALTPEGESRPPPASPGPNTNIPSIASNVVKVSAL
Protocol: (§1) Whole-cell currents of hKv1.5 and hKv4.3 were recorded in established HEK 293 cell lines stably expressing hKv1.5 (KCN5A) and hKv4.3 (KCND3) and IKACh was determined in isolated rat atrial myocytes as described previously[12][31][32] and in Supplemental Materials. […]
(§2) Effects of acacetin prodrug on cardiac potassium currents
(§3) Whole-cell currents of hKv1.5 and hKv4.3 were recorded in established HEK 293 cell lines stably expressing hKv1.5 (KCN5A) and hKv4.3 (KCND3).1, 2 The cells were cultured in Dulbecco’s modified eagle’s medium (DMEM, Invitrogen, Hong Kong) supplemented with 10% fetal bovine serum and 400 µg/mL G418. Cells on a coverslip were transferred to an open cell chamber (0.5 ml) mounted on the stage of an inverted microscope and superfused with Tyrode’s solution at 2 mL/min. The whole cell patch-clamp technique was used as described previously.1, 2 The whole-cell membrane currents were measured using an EPC-10 amplifier and Pulse software (Heka Elektronik, Lambrecht, Germany). Borosilicate glass electrodes (1.2-mm OD) were pulled with a Brown/Flaming puller (model P-97, Sutter Instrument, Nato, CA) and had resistances of 1.5~2.5 MΩ when filled with the pipette solution. A 3-M KCl agar bridge was used as the reference electrode. The tip potential was zeroed before the patch pipette contacted the cell. […]

[2] = biological target: T3, IKACh (acetylcholine-activated K+ current) (Rattus norvegicus, UniProt P48548+P63251); assay: Whole-cell IKACh elicited by 5 μM carbachol in rat atrial myocytes; format: cell-based; settings: 10 μM, at −100 mV, carbachol sensitive current, n = 5
T3 construct: endogenous in cells; host or cells: atrial myocytes dissociated from male Sprague-Dawley rats
T3 sequence (P63251 1-501): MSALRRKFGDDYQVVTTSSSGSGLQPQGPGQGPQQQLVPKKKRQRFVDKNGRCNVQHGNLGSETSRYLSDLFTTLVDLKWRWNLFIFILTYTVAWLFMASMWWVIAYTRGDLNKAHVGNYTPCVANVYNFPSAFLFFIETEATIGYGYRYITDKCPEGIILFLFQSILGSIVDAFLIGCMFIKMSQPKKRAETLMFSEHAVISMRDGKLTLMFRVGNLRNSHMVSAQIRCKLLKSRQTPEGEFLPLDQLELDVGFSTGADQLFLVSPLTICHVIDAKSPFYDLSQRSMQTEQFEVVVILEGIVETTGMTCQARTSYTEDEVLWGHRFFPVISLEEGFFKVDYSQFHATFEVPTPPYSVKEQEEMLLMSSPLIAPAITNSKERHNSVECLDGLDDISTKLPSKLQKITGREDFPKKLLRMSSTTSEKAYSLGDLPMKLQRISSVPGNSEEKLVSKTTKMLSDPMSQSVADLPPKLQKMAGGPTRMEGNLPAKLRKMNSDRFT
T3 sequence (P48548 1-419): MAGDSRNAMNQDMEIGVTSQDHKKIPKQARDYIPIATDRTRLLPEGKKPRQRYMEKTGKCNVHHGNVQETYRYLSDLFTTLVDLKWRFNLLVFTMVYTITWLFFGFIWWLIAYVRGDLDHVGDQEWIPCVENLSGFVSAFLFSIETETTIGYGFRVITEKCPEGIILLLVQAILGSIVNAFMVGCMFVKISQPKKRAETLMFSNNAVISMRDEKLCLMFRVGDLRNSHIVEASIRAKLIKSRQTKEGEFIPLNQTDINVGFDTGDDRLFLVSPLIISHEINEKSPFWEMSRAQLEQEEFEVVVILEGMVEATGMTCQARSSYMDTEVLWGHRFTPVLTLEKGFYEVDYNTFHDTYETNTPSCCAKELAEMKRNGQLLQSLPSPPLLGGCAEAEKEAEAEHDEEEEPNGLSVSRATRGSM
Protocol: as §1
Effects of acacetin prodrug on cardiac potassium currents […]
Cells on a coverslip were transferred to an open cell chamber (0.5 ml) mounted on the stage of an inverted microscope and superfused with Tyrode’s solution at 2 mL/min. The whole cell patch-clamp technique was used as described previously.1, 2 The whole-cell membrane currents were measured using an EPC-10 amplifier and Pulse software (Heka Elektronik, Lambrecht, Germany). Borosilicate glass electrodes (1.2-mm OD) were pulled with a Brown/Flaming puller (model P-97, Sutter Instrument, Nato, CA) and had resistances of 1.5~2.5 MΩ when filled with the pipette solution. A 3-M KCl agar bridge was used as the reference electrode. The tip potential was zeroed before the patch pipette contacted the cell. After a giga-Ohm seal was obtained, the cell membrane was ruptured by applying gentle pressure to establish a whole-cell configuration. […] The liquid junction potential (14.7 mV) calculated with the software Clampex was not corrected in the experiment and data […]
Whole-cell current of IKACh was determined in isolated rat atrial myocytes. […]

[3] = biological target: T4, hKv1.5 current (IKur, KCN5A) (Homo sapiens, UniProt P22460); assay: Whole-cell patch clamp of hKv1.5 current in HEK 293 cells; format: cell-based; settings: 10 μM, at +50 mV, current at end of the voltage step, n = 5
T4 construct: expressed in transfected cells
T4 sequence (P22460 whole entry): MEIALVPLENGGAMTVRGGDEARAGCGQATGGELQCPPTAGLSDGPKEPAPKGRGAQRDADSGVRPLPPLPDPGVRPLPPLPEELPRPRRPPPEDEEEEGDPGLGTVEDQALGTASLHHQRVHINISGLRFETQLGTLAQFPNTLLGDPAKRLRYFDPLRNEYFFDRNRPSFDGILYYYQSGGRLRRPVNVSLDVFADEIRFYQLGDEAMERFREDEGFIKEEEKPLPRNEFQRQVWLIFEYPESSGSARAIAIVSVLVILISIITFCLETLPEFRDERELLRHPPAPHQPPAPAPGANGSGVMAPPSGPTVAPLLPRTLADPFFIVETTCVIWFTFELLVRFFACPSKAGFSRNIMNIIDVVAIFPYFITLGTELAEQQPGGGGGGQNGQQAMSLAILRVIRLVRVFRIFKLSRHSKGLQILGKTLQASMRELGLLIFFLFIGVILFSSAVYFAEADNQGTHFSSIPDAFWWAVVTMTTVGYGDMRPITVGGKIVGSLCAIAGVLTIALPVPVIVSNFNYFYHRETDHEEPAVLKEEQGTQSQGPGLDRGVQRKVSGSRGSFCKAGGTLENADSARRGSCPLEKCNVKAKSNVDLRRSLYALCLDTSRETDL
Protocol: as §1, §2, §3

[4] = Aqueous solubility by HPLC in H2O, 5% glucose and 0.9% NaCl; format: physicochemical

Row | SMILES | inhibition of hERG current (hERG channels) | decrease of hKv4.3 current [1] | decrease of IK.ACh [2] | decrease of hKv1.5 current [3] | solubility [4] | solubility ([4]; 24 °C, saline or isotonic) | solubility ([4]; 24 °C, water) | solubility ([4]; 24 °C, saline or isotonic, in 0.9% NaCl, room temperature (23–25 °C), n = 3, read-out: maximum solubility) | solubility ([4]; 24 °C, saline or isotonic, in 5% glucose, room temperature (23–25 °C), n = 3, read-out: maximum solubility) | solubility ([4]; 24 °C, water, in H2O, room temperature (23–25 °C), n = 3, read-out: maximum solubility) | increase of aqueous solubility vs acacetin ([4]; in 0.9% NaCl) | increase of aqueous solubility vs acacetin ([4]; in 5% glucose) | increase of aqueous solubility vs acacetin ([4]; in H2O)
1 | COc1ccc(-c2cc(=O)c3c(O)cc(O)cc3o2)cc1 [acacetin] | ~ 50% | 69.3 ± 5.1% | 66.5 ± 3.1% | 79.7 ± 4.1% | 0.195 ± 0.0135 µg/mL (≈ 0.686 µM) | 0.312 ± 0.0121 µg/mL (≈ 1.1 µM) | 0.0644 ± 0.0109 µg/mL (≈ 0.227 µM) | – | – | – | – | – | –
2 | COc1ccc(-c2cc(=O)c3c(O)cc(OP(=O)(O)O)cc3o2)cc1 [phosphate ester of acacetin] | – | – | – | – | – | – | – | 4.3 ± 0.1 µg/mL | 2.7 ± 0.1 µg/mL | 2.5 ± 0.1 µg/mL | 21 folds | 7.6 folds | 37.8 folds
